Data set [1] concerns the target T1, Serine/threonine-protein kinase Nek1 (Homo sapiens) (UniProt Q96PY6).
T1 sequence (whole entry): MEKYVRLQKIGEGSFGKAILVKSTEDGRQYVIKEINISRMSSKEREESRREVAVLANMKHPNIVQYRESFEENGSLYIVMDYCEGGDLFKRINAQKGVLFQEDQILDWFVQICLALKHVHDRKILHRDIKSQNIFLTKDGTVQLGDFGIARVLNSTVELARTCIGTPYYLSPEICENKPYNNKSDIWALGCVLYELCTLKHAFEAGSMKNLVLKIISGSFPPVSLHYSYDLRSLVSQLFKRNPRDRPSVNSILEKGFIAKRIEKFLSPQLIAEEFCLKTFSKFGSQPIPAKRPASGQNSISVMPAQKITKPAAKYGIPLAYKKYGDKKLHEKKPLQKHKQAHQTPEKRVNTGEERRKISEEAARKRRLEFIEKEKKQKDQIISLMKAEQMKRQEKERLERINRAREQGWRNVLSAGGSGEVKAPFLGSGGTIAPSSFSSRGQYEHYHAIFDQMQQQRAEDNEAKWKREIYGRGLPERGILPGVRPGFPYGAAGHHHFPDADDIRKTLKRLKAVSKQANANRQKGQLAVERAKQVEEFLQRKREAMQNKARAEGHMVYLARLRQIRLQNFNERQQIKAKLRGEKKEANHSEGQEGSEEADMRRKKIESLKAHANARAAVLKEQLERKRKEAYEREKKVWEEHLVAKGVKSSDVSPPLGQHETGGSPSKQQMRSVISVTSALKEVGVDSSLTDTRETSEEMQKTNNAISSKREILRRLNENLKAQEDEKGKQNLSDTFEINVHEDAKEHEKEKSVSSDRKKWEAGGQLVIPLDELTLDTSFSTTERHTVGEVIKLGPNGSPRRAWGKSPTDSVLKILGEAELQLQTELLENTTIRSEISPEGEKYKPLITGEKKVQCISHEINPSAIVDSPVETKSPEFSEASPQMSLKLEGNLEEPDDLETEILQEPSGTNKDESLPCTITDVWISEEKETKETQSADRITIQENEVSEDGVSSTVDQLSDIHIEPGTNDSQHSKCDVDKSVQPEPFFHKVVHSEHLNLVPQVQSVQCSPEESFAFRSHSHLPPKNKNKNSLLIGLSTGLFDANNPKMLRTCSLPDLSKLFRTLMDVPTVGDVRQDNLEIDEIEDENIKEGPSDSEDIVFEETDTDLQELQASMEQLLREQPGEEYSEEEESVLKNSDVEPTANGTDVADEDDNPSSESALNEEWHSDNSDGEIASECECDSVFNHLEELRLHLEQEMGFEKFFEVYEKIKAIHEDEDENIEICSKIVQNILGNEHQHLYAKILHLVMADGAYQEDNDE
Nature of the data set: Inhibition of human NEK1 using myelin basic protein as substrate assessed as residual activity at 1 uM in presence of [gamma-33P]-ATP by radiometric hotspot kinase assay relative to control.

In data set [2] the target is T1, Serine/threonine-protein kinase Nek1 (Homo sapiens). Nature of the data set: Inhibition of human NEK1 using myelin basic protein as substrate assessed as residual activity at 10 uM in presence of [gamma-33P]-ATP by radiometric hotspot kinase assay relative to control.
For data set [3], the target named is T2, Serine/threonine-protein kinase Nek1 (Homo sapiens, UniProt Q96PY6).
T2 sequence (Q96PY6 whole entry): T1 sequence (whole entry)
Nature of the data set: Inhibition of human NEK1 using myelin basic protein as substrate assessed as residual activity in presence of [gamma-33P]-ATP by radiometric hotspot kinase assay relative to control.

Data set [4] deals with Cyclin-dependent kinase 2/cyclin E1 (Homo sapiens) (UniProt P24864+P24941). Description: Inhibition of human recombinant full length C-terminal His6 tagged CDK2/ N-terminal GST-tagged Cyclin E expressed in baculovirus infected Sf21 insect cells using histone H1 as substrate assessed as residual activity at 1 uM pretreated for 20 mins followed by [33P]-ATP addition measured after 120 mins by radiometric hotspot kinase assay relative to control. Particulars: time 140.0 min.

Data set [5] deals with T3, Serine/threonine-protein kinase Chk1 (Homo sapiens) (UniProt O14757).
T3 sequence (whole entry): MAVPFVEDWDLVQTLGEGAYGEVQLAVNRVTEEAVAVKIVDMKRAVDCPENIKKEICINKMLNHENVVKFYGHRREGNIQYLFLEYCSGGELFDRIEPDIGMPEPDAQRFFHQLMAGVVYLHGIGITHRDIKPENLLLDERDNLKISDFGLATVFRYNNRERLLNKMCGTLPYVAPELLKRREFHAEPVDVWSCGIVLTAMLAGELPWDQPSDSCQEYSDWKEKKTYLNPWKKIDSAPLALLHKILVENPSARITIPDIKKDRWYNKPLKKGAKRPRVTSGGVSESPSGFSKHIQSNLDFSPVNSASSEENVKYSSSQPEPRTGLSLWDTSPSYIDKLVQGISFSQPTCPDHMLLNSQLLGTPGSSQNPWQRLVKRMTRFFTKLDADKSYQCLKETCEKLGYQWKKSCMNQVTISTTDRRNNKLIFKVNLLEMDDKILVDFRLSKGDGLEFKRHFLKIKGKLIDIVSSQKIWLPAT
Description: Inhibition of human recombinant full length N-terminal His tagged CHK1 expressed in baculovirus infected Sf21 insect cells using CHKtide as substrate assessed as residual activity at 1 uM pretreated for 20 mins followed by [33P]-ATP addition measured after 120 mins by radiometric hotspot kinase assay relative to control. The conditions noted are these: time 140.0 min.

Data set [6] concerns the target Vascular endothelial growth factor receptor 2 (Homo sapiens) (UniProt P35968). Nature of the data set: Inhibition of human recombinant C-terminal His6 tagged VEGFR2 (789 to 1356 residues) expressed in baculovirus infected insect cells assessed as residual activity at 1 uM pretreated for 20 mins followed by [33P]-ATP addition measured after 120 mins by radiometric hotspot kinase assay relative to control. The conditions noted are these: time 140.0 min.

The target of data set [7] is T4, Serine/threonine-protein kinase Nek5 (Homo sapiens) (UniProt Q6P3R8).
T4 sequence (whole entry): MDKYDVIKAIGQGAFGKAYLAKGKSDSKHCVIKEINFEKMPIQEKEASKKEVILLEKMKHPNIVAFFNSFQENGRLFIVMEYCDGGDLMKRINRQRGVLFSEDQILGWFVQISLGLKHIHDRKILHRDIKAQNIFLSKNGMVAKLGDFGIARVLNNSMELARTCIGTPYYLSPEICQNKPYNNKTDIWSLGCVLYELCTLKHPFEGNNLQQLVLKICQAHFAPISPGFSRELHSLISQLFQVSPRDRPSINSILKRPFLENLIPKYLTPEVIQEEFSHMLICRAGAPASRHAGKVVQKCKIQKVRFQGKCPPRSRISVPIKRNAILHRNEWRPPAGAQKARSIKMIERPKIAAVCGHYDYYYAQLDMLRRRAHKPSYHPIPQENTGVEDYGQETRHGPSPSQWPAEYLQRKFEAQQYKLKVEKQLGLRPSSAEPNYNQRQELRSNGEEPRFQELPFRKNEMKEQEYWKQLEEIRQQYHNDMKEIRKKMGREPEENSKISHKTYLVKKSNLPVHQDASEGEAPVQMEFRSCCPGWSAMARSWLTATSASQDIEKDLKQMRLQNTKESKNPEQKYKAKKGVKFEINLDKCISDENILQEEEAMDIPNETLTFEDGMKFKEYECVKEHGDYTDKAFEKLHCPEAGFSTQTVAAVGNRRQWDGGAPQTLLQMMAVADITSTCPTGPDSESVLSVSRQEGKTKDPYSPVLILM
Nature of the data set: Inhibition of human recombinant NEK5 assessed as residual activity at 1 uM pretreated for 20 mins followed by [33P]-ATP addition measured after 120 mins by radiometric hotspot kinase assay relative to control. The conditions noted are these: time 140.0 min.

The target in data set [8] is Wee1-like protein kinase (Homo sapiens) (UniProt P30291). Nature of the data set: Inhibition of human recombinant full length WEE1 expressed in insect cells using MBP as substrate assessed as residual activity at 1 uM pretreated for 20 mins followed by [33P]-ATP addition measured after 120 mins by radiometric hotspot kinase assay relative to control. Particulars: time 140.0 min.

A short description of data set [9]: Solubility of the compound in E3 medium with 0.2% DMSO by DAD-HPLC based shake flask method. The format is physicochemical.
The nature of data set [10]: Solubility of the compound in DMEM with 1% DMSO by DAD-HPLC based shake flask method. The format is physicochemical.
Data set [11] can be described thus: Stability of the compound in DMEM measured after 48 hrs by DAD-HPLC method. In kind it is physicochemical. The conditions noted are these: read-out: Stability.

39 molecules from ChEMBL document CHEMBL5053535, “Design, synthesis and biological evaluation of novel aminopyrazole- and 7-azaindole-based Nek1 inhibitors and their effects on zebrafish kidney development” (Bioorg Med Chem Lett, 2021) can be followed below.

Usually IC50 stands for the midpoint of a concentration-inhibition curve. The term solubility denotes how much of the substance goes into solution per volume. A low value points to little dissolved substance.

Values after ≈ are worked out from the molar mass of the structure shown.

Chain of Wee1-like protein kinase (Homo sapiens) (P30291 whole entry, looked up): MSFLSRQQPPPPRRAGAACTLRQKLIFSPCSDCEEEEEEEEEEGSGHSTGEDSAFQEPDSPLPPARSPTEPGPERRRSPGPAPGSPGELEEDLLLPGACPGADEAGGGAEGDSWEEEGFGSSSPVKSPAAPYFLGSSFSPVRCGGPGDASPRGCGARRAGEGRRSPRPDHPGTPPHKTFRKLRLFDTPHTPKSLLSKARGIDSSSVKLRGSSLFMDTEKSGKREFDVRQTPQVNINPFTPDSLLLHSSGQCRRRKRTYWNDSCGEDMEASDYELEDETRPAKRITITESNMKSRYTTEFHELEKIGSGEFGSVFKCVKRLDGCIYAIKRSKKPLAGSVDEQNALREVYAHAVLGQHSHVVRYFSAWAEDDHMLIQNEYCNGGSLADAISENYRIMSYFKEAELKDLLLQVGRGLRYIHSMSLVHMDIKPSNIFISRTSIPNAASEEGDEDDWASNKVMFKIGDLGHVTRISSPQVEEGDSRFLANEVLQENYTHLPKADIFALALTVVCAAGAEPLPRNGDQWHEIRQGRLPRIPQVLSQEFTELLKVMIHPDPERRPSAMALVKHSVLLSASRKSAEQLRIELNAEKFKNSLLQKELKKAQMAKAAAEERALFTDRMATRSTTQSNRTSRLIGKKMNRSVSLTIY
Chain of Vascular endothelial growth factor receptor 2 (Homo sapiens) (P35968 whole entry, the tested form may be a part): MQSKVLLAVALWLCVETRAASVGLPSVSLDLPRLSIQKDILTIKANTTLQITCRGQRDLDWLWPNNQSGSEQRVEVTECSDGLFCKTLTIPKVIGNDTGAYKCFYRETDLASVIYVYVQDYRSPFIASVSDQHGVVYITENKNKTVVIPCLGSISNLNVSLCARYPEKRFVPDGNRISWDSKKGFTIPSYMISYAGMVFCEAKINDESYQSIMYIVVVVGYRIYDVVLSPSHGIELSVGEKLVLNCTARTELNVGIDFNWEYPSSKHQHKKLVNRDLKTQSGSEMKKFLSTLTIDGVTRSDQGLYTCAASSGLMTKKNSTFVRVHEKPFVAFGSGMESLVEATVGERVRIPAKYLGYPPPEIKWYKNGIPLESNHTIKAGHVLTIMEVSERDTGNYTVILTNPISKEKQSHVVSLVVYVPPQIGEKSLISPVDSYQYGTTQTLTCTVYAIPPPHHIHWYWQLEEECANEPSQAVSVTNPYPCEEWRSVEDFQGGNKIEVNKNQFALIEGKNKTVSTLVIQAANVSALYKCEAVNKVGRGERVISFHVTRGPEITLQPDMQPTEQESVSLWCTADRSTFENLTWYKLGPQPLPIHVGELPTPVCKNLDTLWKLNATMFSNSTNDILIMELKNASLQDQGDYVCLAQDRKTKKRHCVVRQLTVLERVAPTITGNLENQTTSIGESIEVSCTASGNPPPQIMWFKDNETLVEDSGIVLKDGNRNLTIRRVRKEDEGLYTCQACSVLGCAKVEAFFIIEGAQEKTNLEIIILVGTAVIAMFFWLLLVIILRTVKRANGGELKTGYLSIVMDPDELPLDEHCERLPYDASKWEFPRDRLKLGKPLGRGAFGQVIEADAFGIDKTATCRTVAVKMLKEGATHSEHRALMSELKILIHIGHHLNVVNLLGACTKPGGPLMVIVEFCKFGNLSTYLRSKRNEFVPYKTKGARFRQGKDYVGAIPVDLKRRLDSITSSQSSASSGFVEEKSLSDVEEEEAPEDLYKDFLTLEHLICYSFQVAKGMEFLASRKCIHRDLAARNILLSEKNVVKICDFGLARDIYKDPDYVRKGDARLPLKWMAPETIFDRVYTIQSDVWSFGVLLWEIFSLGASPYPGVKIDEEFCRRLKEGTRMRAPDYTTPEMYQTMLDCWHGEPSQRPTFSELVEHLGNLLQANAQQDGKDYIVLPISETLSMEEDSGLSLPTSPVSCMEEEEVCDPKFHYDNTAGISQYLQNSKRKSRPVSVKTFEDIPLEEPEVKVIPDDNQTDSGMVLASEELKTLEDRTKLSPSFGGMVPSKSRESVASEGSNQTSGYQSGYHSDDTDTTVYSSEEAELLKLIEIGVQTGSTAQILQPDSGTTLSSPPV

Turning to `c1ccc(Nc2nccc(Nc3cc(-c4ccccc4)[nH]n3)n2)cc1`, the Activity in data set [1] is 65.9%.
Take `c1ccc(-c2cnc3[nH]ccc3c2)cc1`: the Activity in data set [2] amounted to 62.9%.
On to `Cc1cc(Nc2ccnc(NCc3ccccn3)n2)n[nH]1`, for which, in data set [1], the Activity stood at 90.8%.
Take `N#Cc1cccc(-c2cnc3[nH]cc(-c4cccnc4)c3c2)c1`: the Activity came out at 17.4% in [1]; 2.9% in data set [4]; 69.6% in data set [5]; 35% in [6]; 27.9% in data set [7]; 83.4% in data set [8]. Moreover, the IC50 in data set [3] is 129 nM. Also, the solubility in data set [9] came out at 7.2 µM (≈ 2.13 µg/mL); in [10] it was 5.7 µM (≈ 1.69 µg/mL). In addition, the remaining at 48 h in [11] was 98%.
On to `COC(=O)c1cccc(-c2cnc3[nH]cc(-c4ccc(C)cc4)c3c2)c1`, for which, in data set [1], the Activity is 47.9%.
On the same count and under the same terms, the result for `O=[N+]([O-])c1cccc(Nc2nccc(Nc3cc(C4CC4)[nH]n3)n2)c1` reads 28.5%; that for `COC(=O)c1cccc(-c2cnc3[nH]cc(-c4cccc([N+](=O)[O-])c4)c3c2)c1`, 28.5%; that for `Cc1ccc(-c2c[nH]c3ncc(-c4cccc(C#N)c4)cc23)cc1`, 72.8%.
The same measure, in the same setting: in the case of `N#Cc1cccc(-c2cnc3[nH]cc(-c4ccncc4)c3c2)c1` it was 74.3%; in that of `c1ccc(-c2cnc3[nH]cc(-c4ccccc4)c3c2)cc1`, 29.3%.
As for `CNC(=O)c1cccc(-c2cnc3[nH]ccc3c2)c1`, the Activity in data set [2] amounted to 67.2%.
As for `Cc1ccc(CNc2nccc(Nc3cc(C)[nH]n3)n2)cc1`, in data set [1], the Activity was found to be 86.8%.
Same read-out and setting: in the case of `Cc1cc(Nc2ccnc(N(C)c3ccccc3)n2)n[nH]1` it was 89.8%.
In the case of `O=[N+]([O-])c1cccc(-c2cnc3[nH]ccc3c2)c1`, the Activity in data set [2] was 78.5%.
With `COC(=O)c1cccc(-c2cnc3[nH]cc(-c4ccccc4)c3c2)c1`, the Activity in [1] was 7.31%; in data set [4], 23.5%; in [5], above 100%; in [6], 97.2%; in data set [7] it was 78.7%; in [8], 82.9%. In [3], the IC50 turned out to be 123 nM. Besides, the figures for the solubility in data set [9] and in data set [10] were 2.5 µM (≈ 0.821 µg/mL) and 4.4 µM (≈ 1.44 µg/mL), respectively. Also, the remaining at 48 h in data set [11] worked out at 86%.
With `Cc1cc(Nc2ccnc(N3CCN(C)CC3)n2)n[nH]1`, the Activity in data set [1] is 98.4%.
The same measure, in the same setting: the result for `Cc1cc(Nc2ccnc(NCc3ccc4c(c3)OCO4)n2)n[nH]1` reads 97.2%; that for `Cc1cc(Nc2ccnc(Nc3cccc4ccccc34)n2)n[nH]1`, 90.1%.
As to `c1ccc(Nc2nccc(Nc3cc(C4CC4)[nH]n3)n2)cc1`, the IC50 in data set [3] stood at 850 nM.
With `COC(=O)c1cccc(-c2cnc3[nH]cc(-c4ccccc4OC)c3c2)c1`, the Activity in data set [1] turned out to be 60.9%.
On to `Cc1cc(Nc2ccnc(NC3CC3)n2)n[nH]1`, for which the Activity in [1] was 95.1%.
Regarding `COC(=O)c1cccc(-c2cnc3[nH]cc(-c4ccccc4C)c3c2)c1`, in data set [1], the Activity was determined as 61%.
On the same count and under the same terms, in the case of `N#Cc1cccc(-c2cnc3[nH]cc([N+](=O)[O-])c3c2)c1` it was above 100%; in that of `Cc1cc(Nc2ccnc(Nc3ccccc3C)n2)n[nH]1`, 87.5%; in that of `COC(=O)c1cccc(-c2cnc3[nH]cc(-c4cccc(C)c4)c3c2)c1`, 46.4%.
Still for that read-out and setting: the result for `Cc1cc(Nc2ccnc(NCc3cccnc3)n2)n[nH]1` reads 101%; that for `Cc1cc(Nc2ccnc(N(C)Cc3ccccc3)n2)n[nH]1`, 91.8%.
Turning to `O=C(O)c1cccc(-c2cnc3[nH]ccc3c2)c1`, the Activity in data set [2] came to 72.8%.
Consider `Cc1cc(Nc2ccnc(Nc3cccc([N+](=O)[O-])c3)n2)n[nH]1`, for which, in data set [1], the Activity was determined as 36.6%.
Still for that read-out and setting: in the case of `COc1cccc(-c2c[nH]c3ncc(-c4cccc(C#N)c4)cc23)c1` it was 41.1%; in that of `N#Cc1cccc(-c2cnc3[nH]cc(Br)c3c2)c1`, above 100%.
Regarding `N#Cc1cccc(-c2cnc3[nH]ccc3c2)c1`, in data set [2], the Activity was 64.7%.
As for `Cc1cc(Nc2ccnc(NCc3ccccc3)n2)n[nH]1`, the Activity in [1] stood at 95.4%.
Still for that read-out and setting: in the case of `CCCCNc1nccc(Nc2cc(C)[nH]n2)n1` it was 86.9%; in that of `N#Cc1cccc(-c2cnc3[nH]cc(-c4ccccc4)c3c2)c1`, 52.3%; in that of `Cc1cc(Nc2ccnc(Nc3ccccc3)n2)n[nH]1`, 74.8%.
The same measure, in the same setting: in the case of `COCCNc1nccc(Nc2cc(C)[nH]n2)n1` it was 99.8%; in that of `N#Cc1cccc(-c2cnc3[nH]cc(Cl)c3c2)c1`, above 100%.
Turning to `COC(=O)c1cccc(-c2cnc3[nH]ccc3c2)c1`, in [2], the Activity amounted to 44.7%.
